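How tested: cells in 96-well plates exposed to compound for 48 hours at five concentrations. GI50 is the concentration that inhibits growth by half. TGI is the concentration that stops growth completely.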
What was measured:
Assay in all cases: NCI-60 cell line screen, 48 h
786-0 renal = test system: 786-0 renal
A498 renal = test system: A498 renal
A549 NSCLC = test system: A549 NSCLC
ACHN renal = test system: ACHN renal
BT-549 breast = test system: BT-549 breast
CAKI-1 renal = test system: CAKI-1 renal
CCRF-CEM leukemia = test system: CCRF-CEM leukemia
COLO 205 colon = test system: COLO 205 colon
DU-145 prostate = test system: DU-145 prostate
EKVX NSCLC = test system: EKVX NSCLC
HCC-2998 colon = test system: HCC-2998 colon
HCT-116 colon = test system: HCT-116 colon
HCT-15 colon = test system: HCT-15 colon
HL-60(TB) leukemia = test system: HL-60(TB) leukemia
HOP-62 NSCLC = test system: HOP-62 NSCLC
HOP-92 NSCLC = test system: HOP-92 NSCLC
HS 578T breast = test system: HS 578T breast
HT29 colon = test system: HT29 colon
IGROV1 ovarian = test system: IGROV1 ovarian
K-562 leukemia = test system: K-562 leukemia
KM12 colon = test system: KM12 colon
LOX IMVI melanoma = test system: LOX IMVI melanoma
M14 melanoma = test system: M14 melanoma
MALME-3M melanoma = test system: MALME-3M melanoma
MCF7 breast = test system: MCF7 breast
MDA-MB-231 breast = test system: MDA-MB-231 breast
MDA-MB-435 = test system: MDA-MB-435
MDA-MB-468 breast = test system: MDA-MB-468 breast
MOLT-4 leukemia = test system: MOLT-4 leukemia
NCI-H226 lung = test system: NCI-H226 lung
NCI-H23 lung = test system: NCI-H23 lung
NCI-H460 lung = test system: NCI-H460 lung
NCI-H522 lung = test system: NCI-H522 lung
NCI/ADR-RES ovarian = test system: NCI/ADR-RES ovarian
OVCAR-3 ovarian = test system: OVCAR-3 ovarian
OVCAR-4 ovarian = test system: OVCAR-4 ovarian
OVCAR-5 ovarian = test system: OVCAR-5 ovarian
OVCAR-8 ovarian = test system: OVCAR-8 ovarian
PC-3 prostate = test system: PC-3 prostate
RPMI-8226 leukemia = test system: RPMI-8226 leukemia
RXF 393 renal = test system: RXF 393 renal
SF-268 CNS = test system: SF-268 CNS
SF-295 CNS = test system: SF-295 CNS
SF-539 CNS = test system: SF-539 CNS
SK-MEL-2 melanoma = test system: SK-MEL-2 melanoma
SK-MEL-28 melanoma = test system: SK-MEL-28 melanoma
SK-MEL-5 melanoma = test system: SK-MEL-5 melanoma
SK-OV-3 ovarian = test system: SK-OV-3 ovarian
SN12C renal = test system: SN12C renal
SNB-19 CNS = test system: SNB-19 CNS
SR leukemia = test system: SR leukemia
SW-620 colon = test system: SW-620 colon
T-47D breast = test system: T-47D breast
TK-10 renal = test system: TK-10 renal
U251 CNS = test system: U251 CNS
UACC-257 melanoma = test system: UACC-257 melanoma
UACC-62 melanoma = test system: UACC-62 melanoma
UO-31 renal = test system: UO-31 renal

SMILES: COc1ccc(C(=O)/C=C/c2ccccc2Br)cc1S(N)(=O)=O
- GI50 (786-0 renal): 1.81 µM
- TGI (786-0 renal): 3.66 µM
- GI50 (A498 renal): 11.4 µM
- TGI (A498 renal): 24.1 µM
- GI50 (A549 NSCLC): 2.67 µM
- TGI (A549 NSCLC): 8.9 µM
- GI50 (ACHN renal): 1.84 µM
- TGI (ACHN renal): 3.56 µM
- GI50 (BT-549 breast): 4.56 µM
- TGI (BT-549 breast): 16.8 µM
- GI50 (CAKI-1 renal): 4.24 µM
- TGI (CAKI-1 renal): 16.2 µM
- GI50 (CCRF-CEM leukemia): 3.07 µM
- TGI (CCRF-CEM leukemia): 11.1 µM
- GI50 (COLO 205 colon): 2.21 µM
- TGI (COLO 205 colon): 4.49 µM
- GI50 (DU-145 prostate): 3.35 µM
- TGI (DU-145 prostate): 11.4 µM
- GI50 (EKVX NSCLC): 9.86 µM
- TGI (EKVX NSCLC): 21.8 µM
- GI50 (HCC-2998 colon): 2.9 µM
- TGI (HCC-2998 colon): 12.4 µM
- GI50 (HCT-116 colon): 1.52 µM
- TGI (HCT-116 colon): 3.02 µM
- GI50 (HCT-15 colon): 1.65 µM
- TGI (HCT-15 colon): 3.45 µM
- GI50 (HL-60(TB) leukemia): 2.64 µM
- TGI (HL-60(TB) leukemia): 17.2 µM
- GI50 (HOP-62 NSCLC): 2.41 µM
- TGI (HOP-62 NSCLC): 7.39 µM
- GI50 (HOP-92 NSCLC): 3.29 µM
- TGI (HOP-92 NSCLC): 16 µM
- GI50 (HS 578T breast): 8.91 µM
- TGI (HS 578T breast): 72 µM
- GI50 (HT29 colon): 2.27 µM
- TGI (HT29 colon): 4.9 µM
- GI50 (IGROV1 ovarian): 2.76 µM
- TGI (IGROV1 ovarian): 10 µM
- GI50 (K-562 leukemia): 1.85 µM
- TGI (K-562 leukemia): 5.09 µM
- GI50 (KM12 colon): 1.87 µM
- TGI (KM12 colon): 4.01 µM
- GI50 (LOX IMVI melanoma): 1.65 µM
- TGI (LOX IMVI melanoma): 3.02 µM
- GI50 (M14 melanoma): 6.83 µM
- TGI (M14 melanoma): 21.3 µM
- GI50 (MALME-3M melanoma): 10.8 µM
- TGI (MALME-3M melanoma): 22.7 µM
- GI50 (MCF7 breast): 2.89 µM
- TGI (MCF7 breast): 11.3 µM
- GI50 (MDA-MB-231 breast): 2.09 µM
- TGI (MDA-MB-231 breast): 4.69 µM
- GI50 (MDA-MB-435): 7.18 µM
- TGI (MDA-MB-435): 20.1 µM
- GI50 (MDA-MB-468 breast): 2.56 µM
- TGI (MDA-MB-468 breast): 13.2 µM
- GI50 (MOLT-4 leukemia): 1.93 µM
- TGI (MOLT-4 leukemia): 5 µM
- GI50 (NCI-H226 lung): 2.47 µM
- TGI (NCI-H226 lung): 6.96 µM
- GI50 (NCI-H23 lung): 3.22 µM
- TGI (NCI-H23 lung): 12.7 µM
- GI50 (NCI-H460 lung): 1.94 µM
- TGI (NCI-H460 lung): 4.58 µM
- GI50 (NCI-H522 lung): 1.77 µM
- TGI (NCI-H522 lung): 4.12 µM
- GI50 (NCI/ADR-RES ovarian): 2.28 µM
- TGI (NCI/ADR-RES ovarian): 5.67 µM
- GI50 (OVCAR-3 ovarian): 2.09 µM
- TGI (OVCAR-3 ovarian): 4.73 µM
- GI50 (OVCAR-4 ovarian): 3.25 µM
- TGI (OVCAR-4 ovarian): 13.1 µM
- GI50 (OVCAR-5 ovarian): 2.2 µM
- TGI (OVCAR-5 ovarian): 5.99 µM
- GI50 (OVCAR-8 ovarian): 2.62 µM
- TGI (OVCAR-8 ovarian): 8.33 µM
- GI50 (PC-3 prostate): 4.28 µM
- TGI (PC-3 prostate): 16.9 µM
- GI50 (RPMI-8226 leukemia): 2.3 µM
- TGI (RPMI-8226 leukemia): 6.84 µM
- GI50 (RXF 393 renal): 1.91 µM
- TGI (RXF 393 renal): 4.38 µM
- GI50 (SF-268 CNS): 3.66 µM
- TGI (SF-268 CNS): 14.6 µM
- GI50 (SF-295 CNS): 4.13 µM
- TGI (SF-295 CNS): 16.1 µM
- GI50 (SF-539 CNS): 1.74 µM
- TGI (SF-539 CNS): 3.21 µM
- GI50 (SK-MEL-2 melanoma): 14.4 µM
- TGI (SK-MEL-2 melanoma): 28.1 µM
- GI50 (SK-MEL-28 melanoma): 8.3 µM
- TGI (SK-MEL-28 melanoma): 20.5 µM
- GI50 (SK-MEL-5 melanoma): 7.78 µM
- TGI (SK-MEL-5 melanoma): 20.5 µM
- GI50 (SK-OV-3 ovarian): 12.9 µM
- TGI (SK-OV-3 ovarian): 26 µM
- GI50 (SN12C renal): 1.86 µM
- TGI (SN12C renal): 4.15 µM
- GI50 (SNB-19 CNS): 4.26 µM
- TGI (SNB-19 CNS): 16 µM
- GI50 (SR leukemia): 1.48 µM
- TGI (SR leukemia): 4.43 µM
- GI50 (SW-620 colon): 1.79 µM
- TGI (SW-620 colon): 4.04 µM
- GI50 (T-47D breast): 3.57 µM
- TGI (T-47D breast): 15.8 µM
- GI50 (TK-10 renal): 3.29 µM
- TGI (TK-10 renal): 11.9 µM
- GI50 (U251 CNS): 1.49 µM
- TGI (U251 CNS): 2.82 µM
- GI50 (UACC-257 melanoma): 11.9 µM
- TGI (UACC-257 melanoma): 24.5 µM
- GI50 (UACC-62 melanoma): 3.64 µM
- TGI (UACC-62 melanoma): 15.3 µM
- GI50 (UO-31 renal): 1.53 µM
- TGI (UO-31 renal): 3.05 µM

SMILES: CO[C@H]1C[C@@H]2CC[C@@H](C)[C@@](O)(O2)C(=O)C(=O)N2CCCC[C@H]2C(=O)O[C@H]([C@H](C)C[C@@H]2CC[C@@H](OC(=O)C(C)(CO)CO)[C@H](OC)C2)CC(=O)[C@H](C)/C=C(\C)[C@@H](O)[C@@H](OC)C(=O)[C@H](C)C[C@H](C)\C=C/C=C/C=C/1C
- GI50 (MDA-MB-468 breast): 0.00189 µM
- TGI (MDA-MB-468 breast): > 10 µM

SMILES: CC1CC2C3CCC4=CC(=O)C=CC4(C)C3(F)C(O)CC2(C)C1(O)C(=O)COP(=O)(O)O (configuration not stated)
- GI50 (MDA-MB-468 breast): > 500 µM
- TGI (MDA-MB-468 breast): > 500 µM

SMILES: COc1cc2oc(-c3cccc(C(=O)Nc4ccc(Cl)cc4)c3)cc(=O)c2c(OC)c1OC
- GI50 (MDA-MB-468 breast): 3.64 µM
- TGI (MDA-MB-468 breast): 85.7 µM
